Results taken from US6864253B2, “Benzo[4,5]thieno[2,3-c]pyridine and Benzo[4,5]furo[2,3-c]pyridine Derivatives Useful as Inhibitors of Phosphodiesterase” (Orth-McNeil Pharmaceutical, Inc., priority 2000, dated 2005).

How the values were obtained:
[1] = target: T1, PDEV (Oryctolagus cuniculus, UniProt G1SX67); assay: Cyclic nucleotide phosphodiesterase (PDE) assay, inhibition of PDEV isolated from rabbit tissue; type: biochemical; conditions: 10 μM test compound; rabbit PDEV; read-out: % Inh @ 10 μM (rabbit)
Outline: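 PDEV came from rabbit tissue homogenate, using Mono Q anion-exchange fractions. Reactions used 1 μM cGMP or cAMP with [3H]-tracer, 5 mM MgCl2 and Tris pH 7.4 at 30 °C for 30 min; snake venom converted product to [3H]-nucleosides, read by scintillation after resin separation. Inhibitors ran in 10% DMSO final.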

[2] = target: T1, PDEV; assay: In vitro determination of Ki for phosphodiesterase inhibitors (IC50/Ki, 30 nM 3H-cGMP); type: biochemical; conditions: printed in the % INH column as Ki value
Experimental: The assay was adapted to a 96-well format. Phosphodiesterase was assayed in 5 mM MgCl2, 15 mM Tris HCl (pH 7.4), 0.5 mg/ml bovine serum albumin, 30 nM ^3H-cGMP and test compound at various concentrations. […] For all measurements, the test compound was dissolved and diluted in 100% DMSO (2% DMSO in assay). The total volume of the assay was 100 μl. The reaction mixture was incubated at 30° C. for 90 minutes. The reaction was stopped by boiling for 1 minute and then immediately cooled by transfer to an ice bath. To each well was then added 25 μl 1 mg/ml snake venom (Ophiophagus hannah) and the reaction mixture incubating at 30° C. for 10 minute. The reaction was stopped by the addition of 1 ml Bio-Rad AG1-X2 resin slurry (1:3). An aliquot of 200 μl was taken and counted by liquid scintillation.
The % inhibition of the maximum substrate conversion (by the enzyme in the absence of inhibitor) was calculated for each test compound concentration. Using GraphPad Prism′s nonlinear regression analysis (sigmoidal dose response), the % inhibition vs log of the test compound concentration was plotted to determine the IC50. Under conditions where substrate concentration <<Km of the enzyme (Km=substrate concentration at which half of the maximal velocity of the enzyme is achieved), Ki is equivalent to the IC50 value. […]

Structure (SMILES) | inhibition at 10 µM [1] | melting point | Ki [2]
COc1ccc(-c2cnc(N3CCc4c([nH]c5ccccc45)C3c3ccc4c(c3)OCO4)nc2)cc1OC (stereo not drawn) [Cmpd 7, 1-(3,4-Methylenedioxyphenyl)-2-[5-(3,4-dimethoxyphenyl)pyrimidin-2-yl]-2,3,4,9-tetrahydro-1H-β-carboline] | 91% | 173 to 175 °C | –
Cc1ncc(-c2cnc(N3CCc4c([nH]c5ccccc45)C3c3ccc4c(c3)CCO4)nc2)n1C (stereo not drawn) [Cmpd 190, 1-(2,3-Dihydro-benzofuran-5-yl)-2-[5-(2,3-dimethyl-3H-imidazol-4-yl)-pyrimidin-2-yl]-2,3,4,9-tetrahydro-1H-β-carboline] | – | – | 14.2 nM
c1ccc(-c2ccc(N3CCc4c([nH]c5ccccc45)C3c3ccc4c(c3)CCO4)nc2)nc1 (stereo not drawn) [Cmpd 191, 2-[2,3′]Bipyridinyl-6′-yl-1-(2,3-dihydro-benzofuran-5-yl)-2,3,4,9-tetrahydro-1H-β-carboline] | – | – | 0.69 nM
